In test [1] the target is Transthyretin (Homo sapiens) (UniProt P02766). Description: Stabilization of wild type human transthyretin expressed in Escherichia coli BL21(DE3) assessed as fibril formation at 7.2 uM preincubated for 30 mins with transthyretin followed by measuring after 72 hrs maintaining pH of 4.4 by UV-Visible spectrophotometer relative to control.
The target is the same in test [2]. Briefly: Stabilization of wild type human transthyretin expressed in Escherichia coli BL21(DE3) assessed as decrease in TTR-amyloid beta fibril formation at 10 uM preincubated for 6 hrs with transthyretin followed by measuring after 96 hrs maintaining pH of 4.4 by thioflavin T binding assay relative to control.

Activity calls are given as the source filed them. No cut-off for these calls is given here.

For the molecule `O=C(O)CO/N=C/c1ccccc1O`, in test [1], the Activity amounted to 100%.
The term inhibition denotes the share of the control response that was lost under treatment. On to `O=C(O)CO/N=C/c1ccccc1OCC(=O)O`, for which, in test [1], the Activity was determined as 100%. Further, the inhibition entry in test [2] was “inactive”.
For `O=C(O)CO/N=C/c1cc(Br)cc(Br)c1OCC(=O)O`, in that order: 86% and “inactive”.
For `O=C(O)CCO/N=C/c1ccc(O)cc1` the same measures were 17% and “Active”.
For the molecule `O=C(O)CCO/N=C/c1ccc(O)cc1O`, the Activity in test [1] is 38%. Further, in test [2], the inhibition came out at 68%.
For `O=C(O)CCO/N=C/c1cc(Br)cc(Br)c1O` the same measures were 16% and “Active”.
Regarding `O=C(O)CCO/N=C/c1cc(O)cc(O)c1`, the Activity in test [1] is 39%.
`O=C(O)CCO/N=C/c1cccc(O)c1`: the Activity in test [1] came to 42%. For the same molecule, in test [2], the inhibition result was “Active”.
Regarding `O=C(O)CCO/N=C/c1ccc(O)c(O)c1`, the Activity in test [1] was 34%.
Take `O=C(O)CO/N=C/c1cccc(O)c1`: the Activity in test [1] was 100%.
`O=C(O[C@@H]1Cc2c(O)cc(O)cc2O[C@@H]1c1cc(O)c(O)c(O)c1)c1cc(O)c(O)c(O)c1`: in test [2], the inhibition worked out at 53%.
`O=C(O)CCO/N=C/c1ccccc1O`: the Activity in test [1] is 38%. For the same molecule, the inhibition entry in test [2] was “Active”.
For the molecule `O=C(O)CO/N=C/c1ccc(OCC(=O)O)cc1`, the Activity in test [1] is 80%. The inhibition entry in test [2] was “inactive”.
As for `O=C(O)CO/N=C/c1ccc(O)cc1`, the Activity in test [1] stood at 59%.
Still for that read-out and setting: the same measure for `O=C(O)CO/N=C/c1cc(Br)cc(Br)c1O`: 35%.
As for `O=C(O)c1cc(-c2ccc(F)cc2F)ccc1O`, in test [1], the Activity amounted to 9%.
In the case of `O=C(O)CO/N=C/c1cccc(OCC(=O)O)c1`, the Activity in test [1] is 100%. The inhibition result in test [2] was “inactive”.
